The values that follow are results of earlier work, collected in US6703389B2, “Method of treating chronic pain” (Pharmacia & Upjohn Company, priority 1999, dated 2004).

The conditions of series [1]: literature (Leonard 1997).
For series [2] the following is noted: mice, literature (Brunello and Racagni 1998).
Series [3] has as its system norepinephrine reuptake compared to serotonin reuptake. Particulars: rat brain synaptosomes, literature.

In the case of `CCOc1ccccc1OC(c1ccccc1)C1CNCCO1` (racemic) [Reboxetine, 2-[(2-ethoxyphenoxy)(phenyl)methyl]morpholine], the “effect in the 8-OH-DPAT hypothermia test” value in series [1] is on record as “ineffective”. Moreover, the “effect on resperine-induced blepharospasm and hypothermia” value in series [2] is “prevent”.

Turning to `CNCC(O)CC12CCC(c3ccccc31)c1ccccc12` (stereo not drawn) [oxaprotiline], the “pharmacological selectivity for inhibiting norepinephrine reuptake compared to serotonin reuptake, ratio of Ki values” in series [3] is on record as “about 4166”.
